Experiments:
[1] = tested on: K562 (human chronic myelogenous leukaemia); experiment: MTT cytotoxicity assay, leukemic cell line K562; type: cell-based; settings: Homo sapiens, K562, 72 h, three days
Description: (§1) Cytotoxicity of the compounds is the major property determining their antileukemic efficacy in vivo. One of the parameters used, as the basis for cytotoxicity assays, is the metabolic activity of viable cells. For example, a microtiter assay, which uses (3-(4,5-dimethylthiazol-2-yl)-2,5-diphenyltetrazolium bromide (MTT), is widely used to quantitate cell proliferation and cytotoxicity. This assay is widely used in drug screening programs and in chemosensitivity testing. Because only metabolically active living cells reduce MTT to correspond purple formazan dye, these assays detect viable cells exclusively. The quantity of reduced MTT corresponds to the number of vital cells in the culture.
(§2) The compounds were assayed using the following leukemic cell lines: K562 (human chronic myelogenous leukaemia), HL60 (human promyelocytic leukaemia), CEM (human lymphoblastoid leukaemia), THP1 (human monocytic cell line), MV4; 11 (acute myelocytic leukemia). All cell lines were grown in RPMI medium supplemented with fetal bovine serum and L-glutamine and maintained at 37° C. in a humidified atmosphere with 5% CO2. For cytotoxicity assays, 2000-5000 cells were seeded into each well of 96 well plate, allowed to stabilize for at least 8 h and then tested compounds were added at various concentrations ranging from 100 to 0.01 μM in triplicates. After three days, MTT solution (5 mg/ml; Sigma, St. Louis, USA) was added to cells and medium was replaced with DMSO after five hours. The absorbance was measured at 620 nm by employing a microplate reader. MTT assays were repeated 3 times for each drug application and untreated cells were used as reference.

[2] = tested on: HL60 (human promyelocytic leukaemia); experiment: MTT cytotoxicity assay, leukemic cell line HL60; type: cell-based; settings: Homo sapiens, HL-60, 72 h, three days
Description: as §1, §2

[3] = tested on: CEM (human lymphoblastoid leukaemia); experiment: MTT cytotoxicity assay, leukemic cell line CEM; type: cell-based; settings: Homo sapiens, 72 h, three days
Description: as §1, §2

[4] = tested on: THP1 (human monocytic cell line); experiment: MTT cytotoxicity assay, leukemic cell line THP1; type: cell-based; settings: Homo sapiens, THP-1, 72 h, three days
Description: as §1, §2

[5] = tested on: MV4;11 (acute myelocytic leukemia); experiment: MTT cytotoxicity assay, leukemic cell line MV4;11; type: cell-based; settings: Homo sapiens, MV4-11, 72 h, three days
Description: as §1, §2

[6] = tested on: G361 (malignant melanoma); experiment: MTT cytotoxicity assay, solid cancer cell line G361; type: cell-based; settings: Homo sapiens, G-361, 72 h, three days
Protocol: as §2, with “following” for “following leukemic”, “G361 (malignant melanoma), MCF7 (breast adenocarcinoma), PLC/PRF/5 (liver hepatoma), PANC-1 (pancreatic carcinoma) and HCT116 (colon carcinoma).” for “K562 (human chronic myelogenous leukaemia), HL60 (human promyelocytic leukaemia), CEM (human lymphoblastoid leukaemia), THP1 (human monocytic cell line), MV4; 11 (acute myelocytic leukemia).”, “DMEM” for “RPMI”, “4000-10000” for “2000-5000”, “of a” for “of”, “16” for “8”

[7] = tested on: MCF7 (breast adenocarcinoma); experiment: MTT cytotoxicity assay, solid cancer cell line MCF7; type: cell-based; settings: Homo sapiens, MCF7, 72 h, three days
Protocol: as §2, with “following” for “following leukemic”, “G361 (malignant melanoma), MCF7 (breast adenocarcinoma), PLC/PRF/5 (liver hepatoma), PANC-1 (pancreatic carcinoma) and HCT116 (colon carcinoma).” for “K562 (human chronic myelogenous leukaemia), HL60 (human promyelocytic leukaemia), CEM (human lymphoblastoid leukaemia), THP1 (human monocytic cell line), MV4; 11 (acute myelocytic leukemia).”, “DMEM” for “RPMI”, “4000-10000” for “2000-5000”, “of a” for “of”, “16” for “8”

[8] = tested on: PLC/PRF/5 (liver hepatoma); experiment: MTT cytotoxicity assay, solid cancer cell line PLC/PRF/5; type: cell-based; settings: Homo sapiens, PLC-PRF-5, 72 h, three days
Protocol: as §2, with “following” for “following leukemic”, “G361 (malignant melanoma), MCF7 (breast adenocarcinoma), PLC/PRF/5 (liver hepatoma), PANC-1 (pancreatic carcinoma) and HCT116 (colon carcinoma).” for “K562 (human chronic myelogenous leukaemia), HL60 (human promyelocytic leukaemia), CEM (human lymphoblastoid leukaemia), THP1 (human monocytic cell line), MV4; 11 (acute myelocytic leukemia).”, “DMEM” for “RPMI”, “4000-10000” for “2000-5000”, “of a” for “of”, “16” for “8”

[9] = tested on: PANC-1 (pancreatic carcinoma); experiment: MTT cytotoxicity assay, solid cancer cell line PANC-1; type: cell-based; settings: Homo sapiens, PANC-1, 72 h, three days
Protocol: as §2, with “following” for “following leukemic”, “G361 (malignant melanoma), MCF7 (breast adenocarcinoma), PLC/PRF/5 (liver hepatoma), PANC-1 (pancreatic carcinoma) and HCT116 (colon carcinoma).” for “K562 (human chronic myelogenous leukaemia), HL60 (human promyelocytic leukaemia), CEM (human lymphoblastoid leukaemia), THP1 (human monocytic cell line), MV4; 11 (acute myelocytic leukemia).”, “DMEM” for “RPMI”, “4000-10000” for “2000-5000”, “of a” for “of”, “16” for “8”

HCT116 (colon carcinoma) = experiment: MTT cytotoxicity assay, solid cancer cell line HCT116; type: cell-based; settings: Homo sapiens, HCT-116, 72 h, three days
Protocol: as §2, with “following” for “following leukemic”, “G361 (malignant melanoma), MCF7 (breast adenocarcinoma), PLC/PRF/5 (liver hepatoma), PANC-1 (pancreatic carcinoma) and HCT116 (colon carcinoma).” for “K562 (human chronic myelogenous leukaemia), HL60 (human promyelocytic leukaemia), CEM (human lymphoblastoid leukaemia), THP1 (human monocytic cell line), MV4; 11 (acute myelocytic leukemia).”, “DMEM” for “RPMI”, “4000-10000” for “2000-5000”, “of a” for “of”, “16” for “8”

CDK2/Cyclin E = target: T1, CDK2/Cyclin E (Homo sapiens, UniProt P24941); experiment: CDK2/Cyclin E kinase inhibition (33P-ATP, histone H1); type: biochemical; settings: 15 μM ATP
T1 construct: made in house; host or cells: Sf9 insect cells (baculovirus)
Protocol: CDK2/Cyclin E kinase was produced in Sf9 insect cells via baculoviral infection and purified on a NiNTA column (Qiagen). The kinase reactions were assayed with 1 mg/mL histone H1 in the presence of 15 μM ATP, 0.05 μCi [γ-^33P]ATP and of the test compound in a final volume of 10 μL, all in a reaction buffer (60 mM HEPES-NaOH, pH 7.5, 3 mM MgCl2, 3 mM MnCl2, 3 μM Na-orthovanadate, 1.2 mM DTT, 2.5 μg/50 μl PEG20.000). CDK5/p35 was purchased from ProQinase GmbH. The kinase reactions were assayed with 1 mg/mL histone H1 in the presence of 0.15 μM ATP, 0.05 μCi [γ-^33P]ATP and of the test compound in a final volume of 10 μL, all in a reaction buffer (60 mM HEPES-NaOH, pH 7.5, 3 mM MgCl2, 3 mM MnCl2, 3 μM Na-orthovanadate, 1.2 mM DTT, 2.5 μg/50 μl PEG20.000).
(§3) The reactions were stopped by adding 5 μL of 3% aq H3PO4. Aliquots were spotted onto P-81 phosphocellulose (Whatman), washed 3× with 0.5% aq H3PO4 and finally air-dried.

CDK5/p35 = target: T2, CDK5/p35 (Homo sapiens, UniProt Q00535); experiment: CDK5/p35 kinase inhibition (33P-ATP, histone H1); type: biochemical; settings: 0.15 μM ATP
T2 construct: purchased ProQinase GmbH
Protocol: CDK2/Cyclin E kinase was produced in Sf9 insect cells via baculoviral infection and purified on a NiNTA column (Qiagen). […] CDK5/p35 was purchased from ProQinase GmbH.
as §3

[10] = tested on: HUVECs (human umbilical vein endothelial cells); experiment: HUVEC proliferation assay (crystal violet); type: cell-based; settings: Homo sapiens, HUVEC, 72 h, read-out: Inhibition of proliferation (EC50)
Protocol: (§4) To verify that novel compounds have anti-vascularisation properties, we analyzed their influence on the proliferation and migration of HUVECs. HUVECs (human umbilical vein endothelial cells) were purchased from Promocell (Heidelberg, Germany) and cultured in endothelial cell growth medium (ECGM, Promocell, Heidelberg, Germany) containing 10% FCS (Biochrom, Berlin, Germany). Experiments were performed using cells at passage 3.
For proliferation assay, 1.5×10^3 HUVECs were cultured for 24 h. Afterwards, cells were either left untreated or treated with novel compounds for 72 h. Proliferation assay was performed using crystal violet as described previously (Koltermann et al. 2007, Cell Mol. Life Sci. 64:1715-1722).

[11] = tested on: HUVECs (human umbilical vein endothelial cells); experiment: HUVEC migration (scratch) assay; type: cell-based; settings: 16 h, read-out: Inhibition of migration (EC50)
Protocol: as §4
For migration assay, confluent HUVECs were scratched with a pipette tip and immediately treated with either starvation medium M199 (serum-free, negative control; PAN Biotech) or full endothelial cell growth medium (positive control). After 16 h, cells were fixed with 3% formaldehyde and images were taken using the TILLvisON system (Lochham, Germany) connected to an Axiovert 200 microscope (Zeiss, Germany). Evaluation of pictures was made by S.CO LifeScience (Garching, Germany). Migration was quantified as the ratio of the area covered with cells and the area of the cell free wound.

[12] = tested on: breast carcinoma cell line MCF7; experiment: Cell cycle profile by BrdU/propidium iodide flow cytometry; type: cell-based; settings: asynchronously growing MCF7, 24 h, FIG. 1
Protocol: Sub-confluent cells were treated with test compounds at different concentrations for 24 h. The cultures were pulse-labeled with […] 5-bromo-20-deoxyuridine (BrdU) for 30 min at 37° C. prior to harvesting. The cells were then washed in PBS, fixed with 70% ethanol, and denatured in 2 M HCl. Following neutralization, the cells were stained with anti-BrdU fluorescein-labeled antibodies, washed, stained with propidium iodide and analyzed by flow cytometry using a 488 nm laser

T2 sequence (Q00535 whole entry): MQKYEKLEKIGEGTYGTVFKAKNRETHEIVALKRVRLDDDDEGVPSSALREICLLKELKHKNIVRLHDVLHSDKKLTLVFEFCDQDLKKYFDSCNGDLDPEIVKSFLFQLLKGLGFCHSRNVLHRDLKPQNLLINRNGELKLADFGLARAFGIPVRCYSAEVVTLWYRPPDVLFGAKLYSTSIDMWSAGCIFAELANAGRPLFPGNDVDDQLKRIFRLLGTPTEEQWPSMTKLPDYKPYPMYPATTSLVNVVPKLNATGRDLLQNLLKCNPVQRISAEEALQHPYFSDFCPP
T2 sequence (Q15078 whole entry partner): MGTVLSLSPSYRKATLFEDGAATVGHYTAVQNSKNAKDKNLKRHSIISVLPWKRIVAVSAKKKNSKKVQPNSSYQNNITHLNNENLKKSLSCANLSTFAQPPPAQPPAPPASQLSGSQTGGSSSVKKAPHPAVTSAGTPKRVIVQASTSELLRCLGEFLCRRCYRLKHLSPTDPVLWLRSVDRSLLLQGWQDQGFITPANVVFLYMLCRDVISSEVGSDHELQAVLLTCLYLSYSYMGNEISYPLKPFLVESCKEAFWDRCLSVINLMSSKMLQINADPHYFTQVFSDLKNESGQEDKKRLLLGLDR

| Compound | IC50 [1] [µM] | IC50 [2] [µM] | IC50 [3] [µM] | IC50 [4] [µM] | IC50 [5] [µM] | IC50 [6] [µM] | IC50 [7] [µM] | IC50 [8] [µM] | IC50 [9] [µM] | IC50 (HCT116 (colon carcinoma)) [µM] | IC50 (CDK2/Cyclin E) [µM] | IC50 (CDK5/p35) [µM] | EC50 [10] [nM] | EC50 [11] [nM] | effect on the cell cycle of MCF7 [12] |
| --- | --- | --- | --- | --- | --- | --- | --- | --- | --- | --- | --- | --- | --- | --- | --- |
| CC(C)c1n[nH]c2c(NCc3ccc(-c4ccccn4)cc3)nc(N[C@@H]3CCCC[C@H]3N)nc12 (relative stereo) [Compound 64] | 0.1 | 0.09 | 0.05 | 0.04 | 0.09 | 0.15 | 0.22 | 0.14 | 0.08 | 0.34 | 0.046 | 0.088 | – | – | – |
| CC(C)c1n[nH]c2c(NCc3ccc(-c4ccccn4)cc3)nc(S(C)(=O)=O)nc12 [Compound 7] | 0.64 | 0.52 | 0.93 | 1.64 | 1.69 | 0.43 | 0.46 | 0.21 | 1.56 | 1.97 | – | 0.165 | 648 | 550 | – |
| CC(C)c1[nH]nc2c(NCc3ccc(-c4ccccn4)cc3)nc(N3CCNCC3)nc12 [Compound 13] | 0.02 | 0.02 | 0.01 | 0.03 | 0.04 | 0.02 | 0.02 | 0.05 | 0.06 | 0.03 | – | 0.119 | 9 | 26 | – |
| CC(C)c1[nH]nc2c(NCc3ccc(-c4ccccn4)cc3)nc(N3CCSCC3)nc12 [Compound 15] | 0.59 | 0.6 | 0.23 | 0.31 | 0.87 | 0.42 | 0.53 | 0.2 | 0.34 | 0.69 | – | 0.114 | 153 | – | potently arrested cells in S, G2 and M phases |
| CC(C)c1[nH]nc2c(NCc3ccc(-c4ccccn4)cc3)nc(NC[C@@H](C)O)nc12 [Compound 27] | 0.06 | 0.02 | 0.01 | 0.03 | 0.06 | 0.08 | 0.03 | 0.04 | 0.07 | 0.1 | 0.021 | – | 33 | 35 | – |
| CC(C)c1n[nH]c2c(NCc3ccc(-c4ccccn4)cc3)nc(NCCN)nc12 [Compound 40] | 0.34 | 0.22 | 0.14 | 0.11 | 0.25 | – | – | – | – | – | 0.027 | 0.038 | – | – | – |
| CC(C)c1[nH]nc2c(NCc3ccc(-c4ccccn4)cc3)nc(NCCN3CCC3)nc12 [Compound 54] | 0.36 | 0.29 | 0.24 | 0.37 | 0.24 | – | – | – | – | – | 0.322 | 0.204 | – | – | – |
| CC(C)c1[nH]nc2c(NCc3ccc(-c4ccccn4)cc3)nc(NC3CCCCC3N)nc12 (centres unmarked) [Compound 65] | 0.3 | 0.22 | 0.14 | 0.11 | 0.38 | 0.04 | 0.06 | 0.05 | 0.02 | 0.08 | 0.023 | 0.048 | 5 | 77 | – |
| CC[C@H](CO)Nc1nc(NCc2ccc(-c3ccccn3)cc2)c2n[nH]c(C(C)C)c2n1 [Compound 83] | – | 0.02 | 0.06 | 0.01 | 0.07 | 0.04 | 0.05 | 0.02 | 0.02 | 0.03 | 0.054 | – | 34 | 39 | – |

Reference: patent US9957273B2, “5-substituted 7- [4-(2-pyridyl)phenylmethylamino] -3-isopropylpyrazolo4,3-D]pyrimidine derivatives, use thereof as medicaments, and pharmaceutical compositions” (USTAV EXPERIMENTALNI BOTANIKY AV CR, V.V.I., priority 2015, dated 2018)
